pIC50: −log10 of the molar value.
Target: T1, human MPO (Homo sapiens, UniProt P05164)
T1 sequence (P05164 49-745): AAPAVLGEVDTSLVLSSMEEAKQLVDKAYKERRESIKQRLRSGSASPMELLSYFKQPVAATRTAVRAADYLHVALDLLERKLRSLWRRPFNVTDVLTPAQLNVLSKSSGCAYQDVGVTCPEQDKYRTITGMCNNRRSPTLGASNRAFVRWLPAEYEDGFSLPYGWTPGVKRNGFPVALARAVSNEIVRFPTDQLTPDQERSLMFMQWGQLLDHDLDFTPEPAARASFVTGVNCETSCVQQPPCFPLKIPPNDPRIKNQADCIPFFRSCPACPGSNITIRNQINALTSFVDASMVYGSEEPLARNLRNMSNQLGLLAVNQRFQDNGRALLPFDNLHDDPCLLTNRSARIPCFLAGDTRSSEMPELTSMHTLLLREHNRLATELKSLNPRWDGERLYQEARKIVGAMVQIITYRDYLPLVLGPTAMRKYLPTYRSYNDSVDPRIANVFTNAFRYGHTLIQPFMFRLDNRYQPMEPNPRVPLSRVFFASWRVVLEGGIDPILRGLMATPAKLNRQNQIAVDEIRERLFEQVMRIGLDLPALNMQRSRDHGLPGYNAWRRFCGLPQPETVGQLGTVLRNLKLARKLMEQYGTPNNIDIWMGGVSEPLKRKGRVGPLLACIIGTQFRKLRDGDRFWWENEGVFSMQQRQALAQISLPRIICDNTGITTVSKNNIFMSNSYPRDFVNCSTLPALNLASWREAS
Test: MPO inhibition screen (TMB oxidation, absorbance)
Format: biochemical
Details: in the presence of tyrosine (final concentration 8 μM); human MPO 2.5 nM
Protocol: Methods for the determination of MPO inhibitory activity are disclosed in patent application WO 02/090575. The pharmacological activity of compounds according to the invention was tested in the following screen in which the compounds were either tested alone or in the presence of added tyrosine:
Assay buffer: 20 mM sodium/potassium phosphate buffer pH 6.5 containing 10 mM taurine and 100 mM NaCl.
Developing reagent: 2 mM 3,3′,5,5′-tetramethylbenzidine (TMB), 200 μM KI, 200 mM acetate buffer pH 5.4 with 20% DMF.
To 10 μl of diluted compounds in assay buffer, 40 μl of human MPO (final concentration 2.5 nM), with or without 20 μM tyrosine (final concentration, if present, 8 μM), was added and the mixture was incubated for 10 minutes at ambient temperature. Then 50 μl of H2O2 (final concentration 100 μM), or assay buffer alone as a control, were added. After incubation for 10 minutes at ambient temperature, the reaction was stopped by adding 10 μl 0.2 mg/ml of catalase (final concentration 18 μg/ml). The reaction mixture was left for an additional 5 minutes before 100 μl of TMB developing reagent was added. The amount of oxidised 3,3′,5,5′-tetramethylbenzidine formed was then measured after about 5 minutes using absorbance spectroscopy at about […]. IC50 values were then determined using standard procedures.

| Compound | pIC50 |
| --- | --- |
| O=c1[nH]c(=S)n(-c2cccc(OC(F)(F)F)c2)c2nc[nH]c12 [Example 3, 2-thioxo-3-[3-(trifluoromethoxy)phenyl]-1,2,3,7-tetrahydro-6H-purin-6-one] | 5.56 |
| O=c1[nH]c(=S)n(-c2cnc3ccccc3c2)c2nc[nH]c12 [Example 8, 3-quinolin-3-yl-2-thioxo-1,2,3,7-tetrahydro-6H-purin-6-one] | 5.35 |

From US20090286813A1, “Thioxanthine Derivatives and Their Use as Inhibitors of MPO” (ASTRAZENECA AB, priority 2006, published 2009)
